Results on four compounds are retold here after patent US20260263429A1, “INHIBITORS OF CA 2+/CALMODULIN-DEPENDENT PROTEIN KINASE II (CAMKII) THAT DO NOT INHIBIT LONG-TERM POTENTIATION (LTP) INDUCTION AND THERAPEUTIC USES THEREOF” (The Regents of the University of Colorado, A Body Corporate, priority 2023, published 2026).

Where two headings read alike, the source gives them in different places.

Test [1] concerns CaMKIIα binding to GST-GluN2B-c. The settings on record: 4 mM ADP or AS105. As for the experimental part: (§1) In a series of exemplary methods, an in vitro kinase assay was used where purified CaMKIIα is incubated at 30° C. with GST-GluA1 alongside ATP. CaMKIIα normally phosphorylates S831 on the GluA1 subunit and this phosphorylation can be measured as a readout of CaMKIIα enzymatic activity (see e.g., FIG. 8B). […] In another exemplary method, binding of purified CaMKIIα to immobilized GST-GluN2B-c was induced by Ca^2+/CaM in the presence of a vehicle (none), 4 mM ADP or with […] AS105. […] At the same time, two exemplary methods were performed to observe ionomycin or chemical LTP (cLTP) induced co-localization of CaMKII and GluN2B either in HEK293 cells co-expressing GFP-CaMKII and mCherry-2BC or dissociated rat hippocampal cultures expressing GFP-CaMKII and mCh-PSD95 intrabody. HEK293 cells, incubating with vehicle or 10 μM AS105, were subjected to ionomycin. Hippocampal cultures, also incubating with either vehicle or 10 μM AS105, were treated with a chemical LTP (cLTP) stimulus (e.g., 100 μM glutamate, 10 μM glycine for 45 seconds). Confocal microscopy images were taken before and after each stimulus.
(§2) One possible mechanism by which AS283 could enhance GluN2B binding more than ATP is by suppressing CaMKII-mediated phosphorylation of GluN2B at S1303, as this phosphorylation within the CaMKII binding site on GluN2B reduces CaMKII binding.
Bound CaMKII was measured via immunoblot.

Test [2] has as its target T1, purified CaMKIIα (Homo sapiens, UniProt Q9UQM7). The settings on record: read-out: previously published Km values of CaMKII for ATP; cited from earlier work.
Test [3] concerns the target T1, purified CaMKIIα. As to the kind of experiment: In vitro kinase reactions with purified CaMKIIα (GluA1 S831, T286, GluN2B S1303 phosphorylation). The arrangement: made in house; host or cells: baculovirus/Sf9 (CaMKIIα); BL21 bacteria (CaM). The settings on record: GST-GluA1 S831 phosphorylation, 30° C., half-maximal response, four experiments; read-out: Km value of ATP (to activate CaMKII). The format is biochemical. As for the experimental part: as §1
Therefore, in another exemplary method, the ability of AS283 to selective inhibit CAMKII enzymatic activity without interfering with its binding to GluN2B was tested. In a first method, in vitro kinase reactions were performed at 30° C. in 1 mM ATP measuring purified CaMKIIα phosphorylation of GST-GluA1 S831 with varying concentrations of AS283 (0.41-10 μM).
as §2
In vitro phosphorylation assays. CaMKII-mediated phosphorylation of GluA1 S831 was measured by in vitro kinase reaction with purified GST-GluA1 c-terminal tail. Reactions contained 40 nM CaMKII (or water for negative controls), 1 μM GST-GluA1, 50 mM PIPES pH 7.1, 2 mM CaCl2), 10 mM MgCl2, 1 μM calmodulin, 1-4 mM ATP, and 1 PM of okadaic acid. Reactions were done at 30° C. for 20 s; reactions were stopped by adding SDS-loading buffer and incubation in a boiling water bath for 5 min. GST, phospho-S831, CaMKII, phospho-T286, or phospho-S1303 were detected in the samples by immunoblot analysis.
Km and Ki determination. The inhibition constant Ki was calculated using the Cheng-Prusoff equation for competitive inhibition: Ki=IC50/(1+[ATP]/Km).

For test [4], the system named is CaMKII movement to excitatory synapses. As to the kind of experiment: cLTP-induced CaMKII movement to excitatory synapses in the presence of soluble oligomeric Aβ. The class given is cell-based. The settings on record: 0.5 μM Aβ, 45 minutes prior to cLTP.

Regarding `Nc1ncnc2c1ncn2[C@@H]1O[C@H](COP(=O)(O)OP(=O)(O)O)[C@@H](O)[C@H]1O` [ADP], in test [1], the “Ca2+/CaM-induced binding of CaMKIIα to immobilized GST-GluN2B-c versus vehicle (none)” value is on record as “induced binding”.

In general, Km refers to the substrate concentration at which the rate is half of its maximum. On to `Nc1ncnc2c1ncn2[C@@H]1O[C@H](COP(=O)(O)OP(=O)(O)OP(=O)(O)O)[C@@H](O)[C@H]1O` [ATP], for which the figures for the Km at purified CaMKIIα [2] and at purified CaMKIIα [3] were 8 to 127 µM and 33.3 µM, respectively. For the compound `C[C@@H](c1ccc(-c2ccccc2)c(F)c1)c1cc(/N=C(\N)N2CCOCC2)on1` [rimacalib], the “rescue of Aβ-blocked cLTP-induced movement of CaMKII to the synapses” value in test [4] (inhibitor 10 μM) is recorded as “rescued”. For the compound “Aβ: Amyloid beta (1-42) peptide purchased from Anaspec, soluble oligomeric preparation”, the “effect of Aβ on cLTP-induced movement of CaMKII to the synapses” value in test [4] is listed as “blocks cLTP induced movement of CaMKII to the synapses”.
